What was measured:
ΔF508-CFTR [1] = target: T1, ΔF508-CFTR (Homo sapiens, UniProt P13569, DEL508-508); assay: CFTR cell surface levels using HRP-tagged ΔF508-CFTR expressing CFBE cells, in the presence of a co-corrector; type: cell-based; settings: HRP-tagged ΔF508-CFTR expressing CFBE cells, in the presence of 3 μM co-corrector; for EC50: read-out: EC50
T1 construct: host or cells: CFBE41o-, doxycycline-inducible
Outline: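 Cells were seeded with 0.5 μg/mL doxycycline and held 68 h at 37 °C. Test compounds plus 3 μM co-corrector (final 0.1% DMSO) were then added for 20 h at 33 °C. Washed cells received HRP substrate, and luminescence was normalized between DMSO and 3 μM co-corrector controls.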

ΔF508-CFTR [2] = target: T1, ΔF508-CFTR; assay: CFTR cell surface levels using HRP-tagged ΔF508-CFTR expressing CFBE cells, intrinsic corrector capacity; type: cell-based; settings: for EC50: read-out: EC50
Outline: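 Here the cells express ΔF508-CFTR with horseradish peroxidase inserted in extracellular loop 4, so only rescued channel at the surface gives luminescent signal. Compounds act on their own, 20 h at the reduced temperature of 33 °C; values are percent activity relative to DMSO and a 3 μM corrector.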

[3] = HRP-tagged ΔF508-CFTR CFBE41o- cells, compounds alone (intrinsic corrector capacity), 20 hours at 33° C., positive control 3 μM corrector
[4] = HRP-tagged ΔF508-CFTR CFBE41o- cells, compounds alone (intrinsic corrector capacity), 20 hours at 33° C.
[5] = HRP-tagged ΔF508-CFTR expressing CFBE cells, intrinsic corrector capacity (no co-corrector), 33° C., 20 hours
[6] = HRP-tagged ΔF508-CFTR CFBE cells, compound alone (intrinsic corrector capacity), 20 hours at 33° C.

T1 sequence (P13569 with tags, fused parts or gaps DEL508-508): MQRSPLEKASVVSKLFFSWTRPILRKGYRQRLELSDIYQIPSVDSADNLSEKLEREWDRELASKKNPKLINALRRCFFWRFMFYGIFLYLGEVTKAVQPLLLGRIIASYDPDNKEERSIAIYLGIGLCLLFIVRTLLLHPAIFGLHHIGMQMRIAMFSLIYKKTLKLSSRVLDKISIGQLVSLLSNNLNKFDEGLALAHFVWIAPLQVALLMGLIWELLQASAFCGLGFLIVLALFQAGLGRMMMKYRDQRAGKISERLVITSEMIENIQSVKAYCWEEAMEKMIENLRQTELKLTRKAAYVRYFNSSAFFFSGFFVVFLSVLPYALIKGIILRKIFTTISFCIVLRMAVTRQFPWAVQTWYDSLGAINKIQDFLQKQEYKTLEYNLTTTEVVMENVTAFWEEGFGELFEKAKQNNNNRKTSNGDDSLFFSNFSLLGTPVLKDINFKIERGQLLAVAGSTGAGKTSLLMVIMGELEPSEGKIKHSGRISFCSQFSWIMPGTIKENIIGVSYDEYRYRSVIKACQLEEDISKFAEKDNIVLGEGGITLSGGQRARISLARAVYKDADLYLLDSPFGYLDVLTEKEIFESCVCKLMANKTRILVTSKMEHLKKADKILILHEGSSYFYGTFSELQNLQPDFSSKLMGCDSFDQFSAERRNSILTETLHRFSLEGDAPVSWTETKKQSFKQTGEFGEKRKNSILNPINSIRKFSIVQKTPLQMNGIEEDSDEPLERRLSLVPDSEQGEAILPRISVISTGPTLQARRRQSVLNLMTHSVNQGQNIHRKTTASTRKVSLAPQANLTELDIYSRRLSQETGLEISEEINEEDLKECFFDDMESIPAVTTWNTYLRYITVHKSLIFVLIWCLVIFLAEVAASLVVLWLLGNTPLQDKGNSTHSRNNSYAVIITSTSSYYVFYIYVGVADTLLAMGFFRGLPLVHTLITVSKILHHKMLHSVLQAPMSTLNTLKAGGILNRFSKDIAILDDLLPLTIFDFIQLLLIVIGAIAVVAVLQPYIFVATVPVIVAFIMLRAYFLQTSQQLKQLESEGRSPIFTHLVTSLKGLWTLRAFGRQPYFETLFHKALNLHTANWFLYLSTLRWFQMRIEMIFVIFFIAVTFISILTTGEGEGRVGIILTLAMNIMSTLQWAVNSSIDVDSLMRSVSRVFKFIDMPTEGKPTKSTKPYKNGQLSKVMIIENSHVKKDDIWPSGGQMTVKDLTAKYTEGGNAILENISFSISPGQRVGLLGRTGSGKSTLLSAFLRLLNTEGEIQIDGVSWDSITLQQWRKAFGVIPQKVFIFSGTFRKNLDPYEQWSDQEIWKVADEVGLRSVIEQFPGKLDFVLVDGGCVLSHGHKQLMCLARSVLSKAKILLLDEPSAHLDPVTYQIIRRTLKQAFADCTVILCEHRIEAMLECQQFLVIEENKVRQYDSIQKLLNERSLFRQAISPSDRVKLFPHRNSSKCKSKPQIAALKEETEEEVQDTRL

Compound | % Activation (ΔF508-CFTR [1]) | EC50 (ΔF508-CFTR [1]) | % Activation (ΔF508-CFTR [2]; [3]) | EC50 (ΔF508-CFTR [2]; [4]) | % Activation (ΔF508-CFTR [2]; [5]) | EC50 (ΔF508-CFTR [2]; [5]) | % Activation (ΔF508-CFTR [2]; [6]) | EC50 (ΔF508-CFTR [2]; [6])
CC(C)c1nn(C2CCCCC2)c2nc(C(=O)O)cc(-c3ccc(N4CCC(C#N)CC4)cc3)c12 [compound 185, 4-[4-(4-cyanopiperidin-1-yl)phenyl]-1-cyclohexyl-3-(propan-2-yl)-1H-pyrazolo[3,4-b]pyridine-6-carboxylic acid] | 478.6% | 520 nM | 237.8% | 1110 nM | – | – | – | –
O=C(O)c1cc(O[C@@H]2CCOC2)c2c(C3CCC3)nn(-c3ccccc3)c2n1 [compound 582, 3-cyclobutyl-4-{[(3R)-oxolan-3-yl]oxy}-1-phenyl-1H-pyrazolo[3,4-b]pyridine-6-carboxylic acid] | 307.5% | 614 nM | – | – | 92.03% | 903 nM | – | –
CN(c1ccc(-c2cc(C(=O)O)nc3c2c(C2CCC2)nn3-c2cccc(N3CCCC3)c2)cc1)C1CCOCC1 [compound 251, 3-cyclobutyl-4-{4-[methyl(oxan-4-yl)amino]phenyl}-1-[3-(pyrrolidin-1-yl)phenyl]-1H-pyrazolo[3,4-b]pyridine-6-carboxylic acid] | 577.73% | 353 nM | 389.2% | 438 nM | – | – | – | –
Cc1nn(-c2ccccc2)c2nc(C(=O)O)cc(O[C@H]3C[C@@H](N4CCS(=O)(=O)CC4)C3)c12 [compound 333, 4-{[cis-3-(1,1-dioxo-1λ^6,4-thiazinan-4-yl)cyclobutyl]oxy}-3-methyl-1-phenyl-1H-pyrazolo[3,4-b]pyridine-6-carboxylic acid] | 150.85% | 4110 nM | 27.26% | 4170 nM | – | – | – | –
O=C(O)c1cc(N2CCN(CC(F)(F)F)CC2)c2c(C3CCC3)nn(-c3ccccc3)c2n1 [compound 470, 3-cyclobutyl-1-phenyl-4-[4-(2,2,2-trifluoroethyl)piperazin-1-yl]-1H-pyrazolo[3,4-b]pyridine-6-carboxylic acid] | 311.25% | 427 nM | – | – | 147.5% | 736 nM | – | –
O=C(O)c1cc(OCC2CCCC2(F)F)c2c(C3CCC3)nn(-c3ccccc3)c2n1 (stereo not shown) [compound 486, 3-cyclobutyl-4-[(2,2-difluorocyclopentyl)methoxy]-1-phenyl-1H-pyrazolo[3,4-b]pyridine-6-carboxylic acid] | 299% | 335 nM | – | – | 127% | 603 nM | – | –
CC(C)c1nn(-c2cc(F)cc(F)c2)c2nc(C(=O)O)cc(-c3ccc(N(C)C4CCOCC4)nc3)c12 [compound 246, 1-(3,5-difluorophenyl)-4-{6-[methyl(oxan-4-yl)amino]pyridin-3-yl}-3-(propan-2-yl)-1H-pyrazolo[3,4-b]pyridine-6-carboxylic acid] | 457.57% | 467 nM | 212.75% | 464 nM | – | – | – | –
COc1cc(-n2nc(C3CCC3)c3c(N4CCC(N5CCOCC5)CC4)cc(C(=O)O)nc32)ccc1F [compound 908, 3-cyclobutyl-1-(4-fluoro-3-methoxyphenyl)-4-[4-(morpholin-4-yl)piperidin-1-yl]-1H-pyrazolo[3,4-b]pyridine-6-carboxylic acid] | 486.75% | 171 nM | – | – | 220.2% | 256 nM | – | –
COC(C)(C)C1CCN(c2cc(C(=O)O)nc3c2c(C2CCC2)nn3-c2ccccc2)CC1 [compound 605, 3-cyclobutyl-4-[4-(2-methoxypropan-2-yl)piperidin-1-yl]-1-phenyl-1H-pyrazolo[3,4-b]pyridine-6-carboxylic acid] | 531.3% | 43.6 nM | – | – | 292.8% | 82.1 nM | – | –
Cc1cccc(-n2nc(C(C)C)c3c(N4CCC(C(F)(F)F)C4)cc(C(=O)O)nc32)c1 (stereo not shown) [compound 215, 1-(3-methylphenyl)-3-(propan-2-yl)-4-[3-(trifluoromethyl)pyrrolidin-1-yl]-1H-pyrazolo[3,4-b]pyridine-6-carboxylic acid] | 347.15% | 915 nM | 165.95% | 1030 nM | – | – | – | –
O=C(O)c1cc(N2CCC(N3CCOCC3)CC2)c2c(C3CCC3)nn(-c3ccnc(OCC4CCOCC4)c3)c2n1 [compound 919, 3-cyclobutyl-4-[4-(morpholin-4-yl)piperidin-1-yl]-1-{2-[(oxan-4-yl)methoxy]pyridin-4-yl}-1H-pyrazolo[3,4-b]pyridine-6-carboxylic acid] | 416.35% | 256 nM | – | – | – | – | 198.2% | 490 nM
O=C(O)c1cc(N2CCC(CN3CCN4C[C@@H](F)C[C@H]4C3)CC2)c2c(C3CCC3)nn(-c3ccccc3)c2n1 [compound 838, 3-cyclobutyl-4-(4-{[(7S,8aS)-7-fluorohexahydropyrrolo[1,2-a]pyrazin-2(1H)-yl]methyl]piperidin-1-yl)-1-phenyl-1H-pyrazolo[3,4-b]pyridine-6-carboxylic acid] | 411.8% | 115 nM | – | – | 240.3% | 269 nM | – | –
CC(=O)N1CC2CN(c3cc(C(=O)O)nc4c3c(C(C)C)nn4-c3cccc(C)c3)CC2C1 (stereo not shown) [compound 233, 4-(5-acetylhexahydropyrrolo[3,4-c]pyrrol-2(11/)-yl)-1-(3-methylphenyl)-3-(propan-2-yl)-1H-pyrazolo[3,4-b]pyridine-6-carboxylic acid] | 249.55% | 3340 nM | 72.33% | 3030 nM | – | – | – | –
CN(C[C@H]1CCN(c2cc(C(=O)O)nc3c2c(C2CCC2)nn3-c2ccccc2)C1)C(=O)OC(C)(C)C [compound 675, 4-[(3S)-3-{[(tert-butoxycarbonyl)(methyl)amino]methyl}pyrrolidin-1-yl]-3-cyclobutyl-1-phenyl-1H-pyrazolo[3,4-b]pyridine-6-carboxylic acid] | 303.65% | 1050 nM | – | – | 118.8% | 659 nM | – | –
CC1(c2nn(-c3ccccc3)c3nc(C(=O)O)cc(-c4ccc(N5CCOCC5)cc4)c23)CC1 [compound 129, 3-(1-methylcyclopropyl)-4-[4-(morpholin-4-yl)phenyl]-1-phenyl-1H-pyrazolo[3,4-b]pyridine-6-carboxylic acid] | 380% | 390 nM | 178.3% | 414 nM | – | – | – | –
O=C(O)c1cc(CN2CCC(N3CCOCC3)CC2)c2c(C3CCC3)nn(-c3ccc(F)cc3)c2n1 [compound 893, 3-Cyclobutyl-1-(4-fluoro-phenyl)-4-(4-morpholin-4-yl-piperidin-1-ylmethyl)-1H-pyrazolo[3,4-b]pyridine-6-carboxylic acid] | 236.6% | 3330 nM | – | – | 55.75% | 3140 nM | – | –
COCC1CCN(c2cc(C(=O)O)nc3c2c(C(C)C)nn3-c2ccc(F)cc2)CC1 [compound 391, 1-(4-fluorophenyl)-4-[4-(methoxymethyl)piperidin-1-yl]-3-(propan-2-yl)-1H-pyrazolo[3,4-b]pyridine-6-carboxylic acid] | 528.7% | 374 nM | 306.23% | 590 nM | – | – | – | –
CC(C)c1nn(-c2cccc(N3CCC3)c2)c2nc(C(=O)O)cc(-c3ccc(N(C)C4CCOCC4)cc3)c12 [compound 240, 1-[3-(azetidin-1-yl)phenyl]-4-{4-[methyl(oxan-4-yl)amino]phenyl}-3-(propan-2-yl)-1H-pyrazolo[3,4-b]pyridine-6-carboxylic acid] | 609.05% | 516 nM | 380.6% | 588 nM | – | – | – | –
CC(C)Oc1nn(C2CCCCC2)c2nc(C(=O)O)cc(-c3ccc(C(=O)N4CCC(N(C)C)CC4)cc3)c12 [compound 861, 1-cyclohexyl-4-{4-[4-(dimethylamino)piperidine-1-carbonyl]phenyl}-3-[(propan-2-yl)oxy]-1H-pyrazolo[3,4-b]pyridine-6-carboxylic acid] | 155.4% | – | – | – | 31.08% | – | – | –
COC(C)(C1CCN(c2cc(C(=O)O)nc3c2c(C2CCC2)nn3-c2ccccc2)CC1)C(F)(F)F (stereo not shown) [compound 499, 3-cyclobutyl-1-phenyl-4-[4-(1,1,1-trifluoro-2-methoxypropan-2-yl)piperidin-1-yl]-1H-pyrazolo[3,4-b]pyridine-6-carboxylic acid] | 435.6% | 200 nM | – | – | 242.93% | 393 nM | – | –
Cc1nn(-c2ccccc2)c2nc(C(=O)O)cc(N3CCC(NS(C)(=O)=O)CC3)c12 [compound 303, 4-{4-[(methanesulfonyl)amino]piperidin-1-yl}-3-methyl-1-phenyl-1H-pyrazolo[3,4-b]pyridine-6-carboxylic acid] | 123.5% | 7500 nM | 10.878% | 7500 nM | – | – | – | –
